The nature of data set [1]: water solubility compared with scyllo-inositol. As to conditions: 25° C., W/V; ratio to scyllo-inositol. The format is physicochemical. An excerpt: Since the scyllo-inositol derivative of the present invention can be produced and treated at high concentration in an aqueous solution, producing scyllo-inositol by obtaining the scyllo-inositol derivative of the present invention and treating it enzymatically has many advantages. Such methods are therefore one preferred method of utilizing the scyllo-inositol derivative of the present invention.

In a further data set the test system is amyloid β protein. Conditions: reported in Non-patent Reference 1; cited from earlier work.

`OC[C@@H]1O[C@@H](O[C@H]2[C@H](O)[C@H](O)[C@H](O)[C@@H](O)[C@H]2O)[C@@H](O)[C@@H](O)[C@@H]1O` [scyllo-inositol derivative, 1-O-β-D-glucopyranosyl-scyllo-inositol]: the “water solubility relative to the original scyllo-inositol” value in data set [1] was “at least four”.

In the case of `O[C@H]1[C@H](O)[C@@H](O)[C@H](O)[C@@H](O)[C@@H]1O` [scyllo-inositol, cis-1,3,5-trans-2,4,6-cyclohexanehexyl], the “effect on amyloid β protein aggregation” value in the data set on amyloid β protein is “inhibitory effect”.

(Values after patent US9505795B2, “Method for producing scyllo-inositol” (Asahi Kasei Chemicals Corporation, priority 2012, dated 2016).)
